Values quoted from earlier work as cited in patent US20060257347A1, “Self-preservation system” (priority 2005, published 2006).
≈ marks a conversion by molar mass, not a printed value.

Tests used:
Details in all cases: hinokitiol alone; known to be
[1] = test system: Escherichia coli (ATCC No. 8739)
[2] = test system: Pseudomonas aeruginosa (ATCC No. 9027)
[3] = test system: Staphylococcus aureus (ATCC No. 6538)
[4] = test system: Candida albicans (ATCC No. 10231)
[5] = test system: Aspergillus niger (ATCC No. 16404)

MIC (Minimum Inhibitory Concentration) Escherichia coli [1]: 40.0 mg/mL (≈ 244 mM)
MIC (Minimum Inhibitory Concentration) Pseudomonas aeruginosa [2]: 50.0 mg/mL (≈ 304 mM)
MIC (Minimum Inhibitory Concentration) Staphylococcus aureus [3]: 40.0 mg/mL (≈ 244 mM)
MIC (Minimum Inhibitory Concentration) Candida albicans [4]: 12.5 mg/mL (≈ 76.1 mM)
MIC (Minimum Inhibitory Concentration) Aspergillus niger [5]: 40.0 mg/mL (≈ 244 mM)
SMILES: CC(C)c1cccc(=O)c(O)c1 [hinokitiol, Hinokitiol]
